According to DBAASP:
Converted amounts (≈) assume the structure as drawn. Blank lines part the entries; values can stand above or below the compound they belong to.

Legend:
Experiment in all cases: ≥ marks a high value that may be exact or a test limit, other limits are often not marked, values filed in µg/mL are converted to µM
[1] = system: Candida albicans C627
[2] = system: Aeromonas salmonicida 97-4
[3] = system: Escherichia coli UB1005
[4] = system: Salmonella enterica serovar typhimurium MS7953s
[5] = system: Escherichia coli CGSC 4908
[6] = system: Escherichia coli DC2
[7] = system: Staphylococcus aureus C623
[8] = system: Pseudomonas aeruginosa K799
[9] = system: Pseudomonas aeruginosa Z61
[10] = system: Aeromonas salmonicida 99-1
[11] = system: Staphylococcus epidermidis C621
[12] = system: Salmonella enterica subsp. enterica serovar Typhimurium ATCC 14028s
[13] = system: Enterococcus faecalis ATCC 29212
[14] = system: Pseudomonas aeruginosa ATCC 27853
[15] = system: Salmonella typhimurium ATCC 7731
[16] = system: Bacillus subtilis CMCC 63501
[17] = system: Staphylococcus epidermidis ATCC 12228
[18] = system: Staphylococcus aureus ATCC 29213
[19] = system: Pseudomonas aeruginosa PAO1
[20] = system: Salmonella enterica subsp. enterica serovar Typhimurium ATCC 14028
[21] = system: Escherichia coli ATCC 25922
[22] = system: Streptococcus pneumoniae
[23] = system: Staphylococcus aureus
[24] = system: Saccharomyces cerevisiae
[25] = system: Salmonella typhimurium
[26] = system: Pseudomonas putida
[27] = system: Candida albicans
[28] = system: Bacillus subtilis
[29] = system: Serratia marcescens
[30] = system: Streptococcus mutans
[31] = system: Cryptococcus neoformans
[32] = system: Escherichia coli
[33] = system: Cryptococcus neoformans ATCC 28957
[34] = system: Bacillus subtilis ATCC 23857
[35] = system: Staphylococcus aureus ATCC 25923

Compound: CC[C@H](C)[C@H](NC(=O)[C@H](C)NC(=O)CNC(=O)[C@H](Cc1cnc[nH]1)NC(=O)[C@@H](NC(=O)[C@H](Cc1ccccc1)NC(=O)[C@H](CCCCN)NC(=O)CNC(=O)[C@H](C)NC(=O)[C@H](CCCCN)NC(=O)[C@H](Cc1ccccc1)NC(=O)[C@@H](NC(=O)[C@H](Cc1cnc[nH]1)NC(=O)[C@H](CCCCN)NC(=O)[C@H](Cc1ccccc1)NC(=O)[C@@H](NC(=O)[C@H](CO)NC(=O)CNC(=O)[C@H](Cc1c[nH]c2ccccc12)NC(=O)CNC(=O)[C@H](C)N)[C@@H](C)CC)[C@@H](C)CC)[C@@H](C)CC)C(=O)N[C@@H](CCC(N)=O)C(=O)N[C@@H](C)C(=O)N[C@@H](Cc1cnc[nH]1)C(=O)N[C@@H](CC(N)=O)C(=O)N[C@@H](CC(=O)O)C(C)=O [AGWGSIFKHIFKAGKFIHGAIQAHND]
MIC [1]: 22.4 µM (≈ 64 µg/mL)
MIC [2]: 5.61 µM (≈ 16 µg/mL)
MIC [3]: 5.61 µM (≈ 16 µg/mL)
MIC [4]: 5.61 µM (≈ 16 µg/mL)
MIC [5]: 5.61 µM (≈ 16 µg/mL)
MIC [6]: 5.61 µM (≈ 16 µg/mL)
MIC [7]: 5.61 µM (≈ 16 µg/mL)
MIC [8]: 11.2 µM (≈ 32 µg/mL)
MIC [9]: 2.81 µM (≈ 7.99 µg/mL)
MIC [10]: 11.2 µM (≈ 32 µg/mL)
MIC [11]: 5.61 µM (≈ 16 µg/mL)
MIC [12]: 22.4 µM (≈ 64 µg/mL)

Compound: CC[C@H](C)[C@H](NC(=O)[C@H](CCC(=O)O)NC(=O)CNC(=O)[C@@H](NC(=O)[C@H](Cc1ccccc1)NC(=O)[C@H](C)NC(=O)[C@H](CCCCN)NC(=O)CNC(=O)[C@H](Cc1ccccc1)NC(=O)[C@H](CCCCN)NC(=O)[C@H](CCCCN)NC(=O)[C@H](C)N)C(C)C)C(=O)N[C@@H](CCSC)C(N)=O [AKKFGKAFVGEIM]
MIC [13]: > 64 µM
MIC [3]: ≥ 64 µM
MIC [14]: > 64 µM
MIC [15]: ≥ 64 µM
MIC [16]: ≥ 64 µM
MIC [17]: > 64 µM
MIC [18]: > 64 µM
MIC [19]: > 64 µM
MIC [20]: > 64 µM
MIC [21]: 32 µM (≈ 45.6 µg/mL)

Compound: CC(C)C[C@H](NC(=O)CN)C(=O)N[C@@H](CCC(N)=O)C(=O)N[C@@H](Cc1ccccc1)C(=O)N1CCC[C@H]1C(=O)N[C@H](C(=O)NCC(=O)N[C@@H](CCCN=C(N)N)C(=O)N[C@H](C(=O)N[C@@H](Cc1cnc[nH]1)C(=O)N[C@@H](CCCN=C(N)N)C(=O)N[C@@H](CC(C)C)C(=O)N[C@@H](CC(C)C)C(=O)N[C@@H](CCCN=C(N)N)C(=O)N[C@@H](CCCCN)C(=O)O)C(C)C)C(C)C [GLQFPVGRVHRLLRK]
MIC [22]: 2.25 µM (≈ 4 µg/mL)
MIC [23]: 4.5 µM (≈ 8 µg/mL)
MIC [24]: 4.5 µM (≈ 8 µg/mL)
MIC [25]: 1.13 µM (≈ 2 µg/mL)
MIC [26]: 2.25 µM (≈ 4 µg/mL)
MIC [27]: 4.5 µM (≈ 8 µg/mL)
MIC [28]: 2.25 µM (≈ 4 µg/mL)
MIC [29]: 1.13 µM (≈ 2 µg/mL)
MIC [30]: 2.25 µM (≈ 4 µg/mL)
MIC [31]: 4.5 µM (≈ 8 µg/mL)
MIC [32]: 2.25 µM (≈ 4 µg/mL)

Further lines, results first:

MIC [33]: ≥ 64 µM
MIC [34]: ≥ 256 µM
MIC [35]: 16 µM (≈ 37.8 µg/mL)
Compound: CC[C@H](C)[C@H](NC(=O)[C@H](Cc1ccccc1)NC(=O)[C@H](CC(N)=O)NC(=O)[C@H](Cc1ccc(O)cc1)NC(=O)[C@H](CC(C)C)NC(=O)CN)C(=O)N[C@@H](CCCCN)C(=O)N[C@H](C(=O)N[C@@H](CC(C)C)C(=O)NCC(=O)N[C@@H](CCCN=C(N)N)C(=O)N[C@H](C(=O)N[C@H](C(=O)N[C@@H](Cc1ccccc1)C(=O)NCC(=O)N[C@@H](CC(C)C)C(=O)N[C@@H](Cc1ccc(O)cc1)C(=O)N[C@@H](CCCCN)C(=O)N[C@@H](CCC(N)=O)C(=O)N[C@@H](Cc1ccccc1)C(N)=O)C(C)C)[C@@H](C)O)C(C)C [GLYNFIKVLGRTVFGLYKQF]

MIC [1]: 3.19 µM (≈ 7.99 µg/mL)
MIC [2]: 0.399 µM (≈ 0.999 µg/mL)
MIC [3]: 1.6 µM (≈ 4 µg/mL)
MIC [4]: 0.399 µM (≈ 0.999 µg/mL)
MIC [5]: 0.399 µM (≈ 0.999 µg/mL)
MIC [6]: 0.399 µM (≈ 0.999 µg/mL)
MIC [7]: 6.39 µM (≈ 16 µg/mL)
MIC [8]: 1.6 µM (≈ 4 µg/mL)
MIC [9]: 0.798 µM (≈ 2 µg/mL)
MIC [10]: 0.798 µM (≈ 2 µg/mL)
MIC [11]: 12.8 µM (≈ 32 µg/mL)
MIC [12]: 3.19 µM (≈ 7.99 µg/mL)
Compound: CC[C@H](C)[C@H](NC(=O)[C@H](C)NC(=O)[C@H](C)NC(=O)[C@H](CCC(N)=O)NC(=O)CNC(=O)[C@H](CC(C)C)NC(=O)[C@H](Cc1cnc[nH]1)NC(=O)[C@H](CCCCN)NC(=O)[C@H](C)NC(=O)CNC(=O)[C@H](CCCCN)NC(=O)[C@H](CCCNC(=N)N)NC(=O)[C@H](CC(C)C)NC(=O)[C@H](Cc1c[nH]c2ccccc12)NC(=O)[C@H](CCCCN)NC(=O)[C@H](CCCCN)NC(=O)[C@H](Cc1c[nH]c2ccccc12)NC(=O)CN)C(=O)N[C@@H](CCCCN)C(=O)NCC(=O)N[C@@H](CC(C)C)C(=O)N[C@@H](C)C(=O)N[C@@H](CO)C(C)=O [GWKKWLRKGAKHLGQAAIKGLAS]

MIC [3]: ≥ 64 µM
MIC [14]: > 128 µM
MIC [15]: ≥ 128 µM
MIC [16]: ≥ 128 µM
MIC [17]: 128 µM (≈ 219 µg/mL)
MIC [18]: > 128 µM
MIC [20]: > 128 µM
MIC [21]: > 128 µM
Compound: CC[C@H](C)[C@H](NC(=O)[C@H](C)NC(=O)[C@@H](NC(=O)[C@@H]1CCCN1C(=O)[C@@H](NC(=O)[C@H](CC(C)C)NC(=O)[C@@H]1CCCN1C(=O)[C@H](Cc1c[nH]c2ccccc12)NC(=O)[C@H](Cc1ccccc1)NC(=O)[C@H](CCCN=C(N)N)NC(=O)[C@@H](N)CCCCN)C(C)C)C(C)C)C(=O)N[C@@H](CC(N)=O)C(=O)N[C@H](C(=O)N[C@H](C(=O)N[C@@H](C)C(N)=O)C(C)C)[C@@H](C)O [KRFWPLVPVAINTVA]

MIC [22]: 6.55 µM (≈ 16 µg/mL)
MIC [23]: 6.55 µM (≈ 16 µg/mL)
MIC [24]: 1.64 µM (≈ 4 µg/mL)
MIC [25]: 3.27 µM (≈ 8 µg/mL)
MIC [26]: 13.1 µM (≈ 32 µg/mL)
MIC [27]: 1.64 µM (≈ 4 µg/mL)
MIC [28]: 6.55 µM (≈ 16 µg/mL)
MIC [29]: 6.55 µM (≈ 16 µg/mL)
MIC [30]: 6.55 µM (≈ 16 µg/mL)
MIC [31]: 1.64 µM (≈ 4 µg/mL)
MIC [32]: 6.55 µM (≈ 16 µg/mL)
Compound: CC[C@H](C)[C@H](NC(=O)CNC(=O)CNC(=O)[C@@H](NC(=O)[C@@H]1CCCN1C(=O)[C@H](Cc1ccccc1)NC(=O)[C@H](CCC(N)=O)NC(=O)[C@H](CC(C)C)NC(=O)CNC(=O)[C@H](C)NC(=O)[C@@H](N)CCCN=C(N)N)C(C)C)C(=O)NCC(=O)N[C@@H](CCCCN)C(=O)N[C@@H](Cc1ccccc1)C(=O)N[C@@H](CC(C)C)C(=O)N[C@@H](Cc1cnc[nH]1)C(=O)N[C@@H](CO)C(=O)N[C@@H](C)C(=O)N[C@@H](CCCCN)C(=O)N[C@@H](CCCCN)C(=O)N[C@@H](Cc1ccccc1)C(=O)NCC(=O)N[C@@H](CCCCN)C(=O)O [RAGLQFPVGGIGKFLHSAKKFGK]
